Consider three compounds from ChEMBL document CHEMBL1155913, “Novel anticancer agents, kayeassamins A and B from the flower of Kayea assamica of Myanmar” (2008).

Experiment [1] deals with PANC-1. Nature of the experiment: Cytotoxicity against human PANC1 cells under nutrient-deprived medium after 24 hrs by serial dilution method. The format is functional.
Experiment [2] has as its system PANC-1. The experiment is described as follows: Inhibition of human PANC1 cells migration to pipette tip-induced wounds under nutrient-rich medium at 1 uM after 72 hrs by phase-contrast microscopy. The format is functional, cell-based.
For experiment [3], the system named is PANC-1. The experiment is described as follows: Selectivity index, ratio of PC100 for human PANC1 cells under nutrient-rich to nutrient-deprived medium. The format is functional.
In experiment [4] the test system is PANC-1. Nature of the experiment: Induction of apoptosis in human PANC1 cells under nutrient-deprived medium assessed as morphological changes at 1 uM after 24 hrs by phase-contrast microscopy. The experiment is classed as functional, cell-based.

Active and inactive are the calls of the source. The calls are words filed in the database; no cut-off is given here.

Regarding `COc1cc(C[C@H]2C(=O)OC[C@@H]2Cc2ccc(OC)c(OC)c2)ccc1O` [ARCTIGENIN], the Cytotoxicity in experiment [1] was found to be 1 µM.

In the case of `CCCC(=O)c1c(O)c(C/C=C(\C)CCC=C(C)C)c2oc(=O)cc([C@@H](O)CC)c2c1O` [KAYEASSAMIN B], in experiment [1], the Cytotoxicity came to 1 µM. Further, the result in experiment [2] was inactive. Moreover, the Ratio in experiment [3] was found to be 256. The result in experiment [4] was Active.

`CCCC(=O)c1c(O)c(C/C=C(\C)CCC=C(C)C)c(O)c2c([C@@H](O)CC)cc(=O)oc12` [KAYEASSAMIN A] yielded a Cytotoxicity in experiment [1] of 1 µM. Further, the result in experiment [2] was inactive. The Ratio in experiment [3] came to 256. Further, the outcome in experiment [4] was Active.
